Test results: paper PMC10897929 (2024)

Columns and labels:
[1] = system: CSS.3_cut5 (DNA, aptamer) GGACGACGCCAGAAGTTTACGAGGATATGGTAACATAGTC; test: BLI, steady state fit; conditions: Na+ 123 mM (NaCl), K+ 3.5 mM, Ca2+ 2.5 mM, Mg2+ 0.7 mM; sISF, 10 mM HEPES, 30 °C
[2] = system: CSS.3_cut3 (DNA, aptamer) GGACGACGCCAGAAGTTTACGAGGATATGGTAACATAGTCGT; test: BLI, steady state fit; conditions: Na+ 123 mM (NaCl), K+ 3.5 mM, Ca2+ 2.5 mM, Mg2+ 0.7 mM; sISF, 10 mM HEPES, 30 °C

KD [1]: 4.2 µM | KD [2]: 0.99 µM
SMILES: C[C@]12CCC(=O)C=C1CC[C@@H]1[C@@H]2[C@@H](O)C[C@@]2(C)[C@H]1CC[C@]2(O)C(=O)CO
